According to ChEMBL document CHEMBL3507680, “University of Dundee, Gates Library screen for HepG2 cell viability”:

Assay: Human HepG2 cell viability assay in 384 well format
Assay type: toxicity, cell-based
Parameters: dose 125 nL, time 70.5 hour; cytotoxicity at 70.5 h: concentration not given beside the values
Settings: HepG2 cells, read-out: Inhibition

| Compound | cytotoxicity at 70.5 h |
| --- | --- |
| CNCC(=O)N1CCCC(c2ccnc(Nc3cnccn3)n2)C1 (stereo unspecified) | -9.17% |
| Cc1c[nH]c(CN2CCCCC2CCn2cccn2)c(C)c1=O (stereo unspecified) | -10.2% |
| Cc1ccc(-c2nc(CNC(C)CCO)[nH]c2-c2ccccn2)cc1 (stereo unspecified) | 1.74% |
| COCCCn1c(CN2CCCC(O)C2)cnc1S(=O)(=O)C1CCCC1 (stereo unspecified) | -5.61% |
| Cc1nc(CN(C)C2CCN(CC(=O)N3CCOCC3)C2)no1 (stereo unspecified) | -12.6% |
| O=C(NC1CCN(c2ccc(-c3ccccc3F)nn2)C1)C1CCC1 (stereo unspecified) | 1.72% |
| Cc1nc(-c2c(C)noc2C)cc(C2CCN(S(=O)(=O)N(C)C)CC2)n1 | -8.98% |
| CC(C)c1nc(CN(C)C2CCN(CCNS(C)(=O)=O)C2)no1 (stereo unspecified) | 32.3% |
| CCn1c(C)nnc1SCCNc1nc(C)nc2c1cnn2C | -9.87% |
| CC(c1ccco1)n1cc(-c2cc(CN3CCCC3)cs2)nn1 (stereo unspecified) | -0.331% |
| CC(NC(=O)CCc1nc(-c2nnc[nH]2)no1)c1ccc(F)cc1F (stereo unspecified) | 4.47% |
| CC(=O)N1CCS(=O)(=O)[C@@H]2CCN(S(=O)(=O)CC(C)C)CC[C@@H]21 | -6.44% |
| CC(C)c1nnc(NC(=O)N(C)Cc2ccncc2)s1 | -9.39% |
| Cc1cccc(OC2CCN(Cc3ncc[nH]3)CC2)c1 | 15.5% |
| Cc1cccc(C)c1OC1CN(Cc2cnc(-c3ccco3)nc2)C1 | -6.4% |
| CNC(=O)C1CCCCN1C(=O)C1CCN(S(C)(=O)=O)CC1 (stereo unspecified) | -11.7% |
| O=C(NCCCN1CCc2ccccc2C1)c1ccccc1Br | -7.72% |
| Cc1nc(C(=O)N2CCN(S(C)(=O)=O)[C@@H]3CS(=O)(=O)C[C@@H]32)cs1 | 1.07% |
| Cc1cc(C(=O)CN2CCN(c3cnccn3)CC2)c(C)n1C(C)C | -10.7% |
| Fc1cnc(N2C[C@H]3CCC[C@@]3(COc3ccccn3)C2)nc1 | -7.17% |
| CCN1C(=O)C2(CCOCC2)c2cc(NC(=O)c3cccn3C)ccc21 | -0.784% |
| CS(=O)(=O)N1CCO[C@@H]2CN(C(=O)C3CC(F)(F)C3)C[C@@H]2C1 | -3.63% |
| O=C(NCc1ccccn1)[C@H]1COC[C@H]2CN(c3ncccn3)C[C@H]21 | -4.8% |

| Compound | cytotoxicity at 70.5 h |
| --- | --- |
| O=C(C1CC(c2cccc(F)c2)=NO1)N1CCc2ccccc21 (stereo unspecified) | -4.18% |
| Cn1cccc1C(=O)N1CCc2onc(Cn3cccn3)c2C1 | -5.3% |
| CS(=O)(=O)NC1CCN(C(=O)c2cc3ccccc3s2)C1 (stereo unspecified) | -22.9% |
| Cc1ccncc1NS(=O)(=O)c1ccc(Cl)s1 | -3.59% |
| O=C(c1ccc2[nH]ccc2c1)N1CCn2cnc(COCC3CC3)c2C1 | -4.35% |
| Cc1ccccc1N1CCCN(C(=O)c2nn(C)cc2Cl)CC1 | 27.7% |
| Cc1ccc(NCc2cncc3c2CCN(Cc2ccccn2)C3)nn1 | -13.4% |
| CC(=O)N1CCC2(C1)c1ccccc1S(=O)(=O)N2Cc1ccccc1 (stereo unspecified) | 3.49% |
| Cc1nn(C)c2nc(N3CCCCC3c3nccs3)sc12 (stereo unspecified) | 5.1% |
| c1cnc(N2CCC(c3nccn3CC3CC3)CC2)nc1 | -2.28% |
| Cc1cnn(-c2ccc(S(N)(=O)=O)cc2F)c1 | 20% |
| O=C(c1ccc(F)c(F)c1)N1CCC[C@]2(C[C@@H](OCC3CC3)CO2)C1 | -12.6% |
| CC(=O)N(Cc1noc(C)n1)C1CCN(Cc2cc(C)on2)C1 (stereo unspecified) | -2.83% |
| O=C(c1ccc2c(c1)CCC2)N1CC[C@H](O)[C@]2(CCCO2)C1 | -0.381% |
| CCc1c(C)sc2ncnc(N3CC[C@@H](N4CCC(O)CC4)[C@H](O)C3)c12 | -10.6% |
| Cc1noc(C)c1CN1C[C@@H]2COC[C@@H](CC(=O)N3CCCO3)[C@@H]2C1 | -6.49% |
| CCC(=O)N1CCN(C(=O)Nc2cccc(F)c2)[C@H]2CS(=O)(=O)C[C@H]21 | -2.91% |
| COc1ccc(N2CCCN(C(=O)Cc3csc(C)n3)CC2)cc1 | 0.0529% |
| COc1cc(C)nc(N2CCN(C(=O)CN(C)C3CC3)CC2)n1 | -4.51% |
| CC(C)c1nnc(NCc2ccsc2)o1 | 3.33% |
| CC(C)c1nc(C(=O)N2CCOCC2CC(=O)c2ccco2)c[nH]1 (stereo unspecified) | -14.6% |
| Cc1noc(-c2ccc(N3CCC[C@H]3CO)nc2)n1 | -0.652% |
| CN1CCC2(CC1)CN(Cc1ccc(C3CCCCO3)o1)CCCN2C (stereo unspecified) | -4.97% |

| Compound | cytotoxicity at 70.5 h |
| --- | --- |
| CC(NC(=O)NCCc1ccc(Cl)s1)c1ccccn1 (stereo unspecified) | -2.15% |
| CSCC[C@H](NC(C)=O)C(=O)N(C)Cc1ccc(-n2cccn2)cc1 | 23.9% |
| COc1ccc(Br)cc1CCC(=O)N1CCSCC1 | 8.26% |
| Cn1ccnc1CN1CCC2(CC1)CN(Cc1ccccc1)C(=O)CO2 | -5.92% |
| CCC(C)(CC(=O)O)NC(=O)Cc1ccccc1Br (stereo unspecified) | -4.24% |
| O=C(c1ccco1)N1CCOCC2(C1)CN(c1ccccc1)C(=O)CO2 (stereo unspecified) | -5.76% |
| Cc1noc2nc(C3CCN(CC4CCCCC4)CC3)cc(C(F)F)c12 | 1.17% |
| CC(C)(C)NC(=O)N1CCC(NC(=O)Cc2cccnc2)CC1 | -3.09% |
| Cc1ccccc1C(C(=O)N1CCN(C(=O)c2ccc[nH]2)CC1)N(C)C (stereo unspecified) | -15.2% |
| O=C(c1cccnc1O)N(CCO)Cc1cc(Br)ccc1F | -9.73% |
| CC(Cn1cc(Br)cn1)C(=O)Nc1ccc(C(N)=O)cc1 (stereo unspecified) | 7.39% |
| CC(=O)N1CC(C(=O)NCCc2ncc(C)s2)C1 | -5.34% |
| NCc1cc(-c2ccccc2)n2nccc2n1 | -10.1% |
| Cc1nc2cc(C(=O)N3CCCC(n4cncn4)C3)ccc2n1C (stereo unspecified) | 22.7% |
| CC(=O)NCCNc1nc(C2CCCC2)nc2c1cnn2C | -5.79% |
| CSCCc1n[nH]c2c1CN(S(=O)(=O)c1cn(C)c(C)n1)CC2 | -4.85% |
| O=C(NCCCn1cccn1)c1csc2c1CCCC2 | -11.3% |
| O=S1(=O)NC(c2ccnc(N3CCOCC3)n2)=Nc2ccccc21 | -9.53% |
| Cc1cc(C(=O)NCc2ccco2)nn1C | -11.3% |
| Cc1nnc(SCc2cccc(F)c2)n1CC(N)=O | -125% |
| CCOC(=O)COc1ccc(C(C)=O)c(O)c1 | 28.9% |
| COCc1cc(N2CCc3onc(-c4cccc(OC)c4)c3C2)ncn1 | -5.12% |
| COc1cccc(NC(=O)Nc2ccc3c(c2)CC(=O)N3)c1 | -16.9% |

| Compound | cytotoxicity at 70.5 h |
| --- | --- |
| Cn1ccc(CN2CCC(NC(=O)NC3CCCCC3)CC2)cc1=O | -5.64% |
| CCN(CCNC(=O)c1cccnc1OCCOC)C1CC1 | 0.553% |
| CCOC(=O)C1CSCCN1C(=O)c1ccc(-n2nc(C)cc2C)cc1 (stereo unspecified) | 3.47% |
| Cc1ccc(CN2CCC3(CC2)CC(CC(=O)NC(C)C)CO3)s1 (stereo unspecified) | -7.06% |
| Cc1nccn1-c1ccc(C(C)NCCc2ccccn2)cc1 (stereo unspecified) | 0.00833% |
| Cc1ncc(CN(C)CC(O)c2ccc(OC(F)(F)F)cc2)s1 (stereo unspecified) | -3.36% |
| NC(=O)c1ccc(C(=O)N(Cc2ccc(O)cc2)CC2CC2)cc1 | 6.44% |
| COCCC(=O)NCCc1nc2cc(-c3ccc(OC)cc3)ncn2n1 | -6.53% |
| COCCN(C/C=C/c1ccccc1)Cc1[nH]cnc1C | 1.05% |
| CSc1ccccc1CN1C[C@@H]2CC[C@H](C1)N(CC1CC1)C2=O | 26.6% |
| Cn1c(CS(=O)(=O)Cc2ccc(Cl)cc2)cc(=O)n(C)c1=O | -6.35% |
| CCOC(=O)N1CC2(CCNCC2)c2cc(Cl)ccc21 | -11.6% |
| Cc1ncc(CNC(=O)c2oc3ccccc3c2CN(C)C)s1 | -8.45% |
| COc1cc(C(=O)N2CCC(c3n[nH]c(C)n3)CC2)cc(OC)c1C | -3.07% |
| CS(=O)(=O)N1CCN(Cc2c(O)ccc3oc4c(c23)CCCC4)CC1 | -10.3% |
| COc1ccc(CN2CCCN(c3cc(C(N)=O)ccn3)CC2)cc1 | 9.62% |
| CC(C)c1nc2c(n1C)CCN(Cc1cccc(C(N)=O)c1)C2 | -13.9% |
| Cc1nc(S(=O)(=O)NCCC(=O)NCc2ccc(C#N)cc2)cn1C | -0.237% |
| CCN1CC(C(=O)N(C)Cc2cc3cc(F)ccc3[nH]2)CC1=O (stereo unspecified) | -0.954% |
| Cn1cnc(S(=O)(=O)N2CC3(CCN(CC4CC4)C3)C2)c1 | 14.6% |
| CCN1CC(=O)NCC12CCN(C(=O)c1ccno1)C2 (stereo unspecified) | 2.94% |
| CC(C(N)=O)N1CCN(c2ncc(Br)cn2)CC1 (stereo unspecified) | 0.267% |
| CCN(CC)S(=O)(=O)N1CCCC1c1cccc(Nc2ncc(C)s2)n1 (stereo unspecified) | -11.3% |

| Compound | cytotoxicity at 70.5 h |
| --- | --- |
| COCCOCC(=O)NC(C#N)c1cc(Cl)cc(Cl)c1 (stereo unspecified) | 19.4% |
| Cc1c(C(=O)O)nnn1-c1cccc2cccnc12 | -13.1% |
| Cc1nnc(SCCCNc2cc(C3CC3)ncn2)s1 | 22.4% |
| CCOc1ccccc1CC(=O)N1C[C@@H](C(=O)O)[C@H](c2ccncc2)C1 | 37.4% |
| CNC(=O)C1CN(C(=O)c2cccnc2)CCN(S(C)(=O)=O)C1 (stereo unspecified) | -4.31% |
| CC(C)COc1cncc(N2CCCC(CC(N)=O)C2)n1 (stereo unspecified) | -1.79% |
| O=C(NCC(O)COc1cccc(F)c1)C1(c2ccc(F)cc2)CC1 (stereo unspecified) | -12% |
| CCOC(=O)C1CN(S(=O)(=O)C2CC2)Cc2ncn(CC)c21 (stereo unspecified) | 11% |
| Cc1cc(C)n(CCC2CC(=O)Nc3cc4[nH]ncc4cc32)n1 (stereo unspecified) | -6.11% |
| Cn1cc(CN2CC[C@H]3C[C@@H](c4nc(C5CC5)cs4)O[C@@H]3C2)cn1 | 5.37% |
| N#Cc1ccc(CNCC2CCN(CCO)CC2)cc1 | -5.67% |
| Cc1ccccc1-n1cc(-c2ccnc(N[C@H](CO)C(C)C)n2)cn1 | -14.1% |
| O=C(C1=CC2(CCNCC2)c2ccccc21)N1CCCC1 | -14.7% |
| Cc1ccc(C(=O)N(Cc2ccc(F)cc2)C2CC2)c(=O)[nH]1 | -3.98% |
| Cc1ccc(Cl)cc1NCc1nc2n(n1)CCCCC2 | 7.47% |
| CC(C)(C)N1CC(C(=O)N2CCN(CCn3cncn3)CC2)CC1=O (stereo unspecified) | -3.91% |
| CN1CC(=O)N(c2ccsc2)CC12CCN(C(=O)CC1CCCC1)C2 (stereo unspecified) | -0.558% |
| Cc1ccc(NC(=O)N2CCOC(C)C2)cc1Cl (stereo unspecified) | -7.15% |
| CC(NC(=O)CSCC#N)c1cccc(NC(=O)c2ccccc2)c1 (stereo unspecified) | 10.4% |
